Experimental data: PubChem BioAssay AID1259407 (Chemical Carcinogenesis Research Information System (CCRIS), 2018)
Activity calls are given as the source filed them. How the calls were made is not given here.

Tested on: CCRIS mutagenicity, Ames/micronucleus/aberration tests
Experiment: CCRIS mutagenicity studies
[1] = Test System: AMES SALMONELLA TYPHIMURIUM, Strain/Indicator: TA98, Metabolic Activation: NONE, Method: STANDARD PLATE
[2] = Test System: AMES SALMONELLA TYPHIMURIUM, Strain/Indicator: TA100, Metabolic Activation: NONE, Method: STANDARD PLATE
[3] = Test System: AMES SALMONELLA TYPHIMURIUM, Strain/Indicator: TA98, Metabolic Activation: NONE, Method: PREINCUBATION
[4] = Test System: AMES SALMONELLA TYPHIMURIUM, Strain/Indicator: TA100, Metabolic Activation: NONE, Method: PREINCUBATION
[5] = Test System: AMES SALMONELLA TYPHIMURIUM, Strain/Indicator: TA1535, Metabolic Activation: NONE, Method: PREINCUBATION
[6] = Test System: AMES SALMONELLA TYPHIMURIUM, Strain/Indicator: TA100, Metabolic Activation: RAT, LIVER, S-9, AROCLOR 1254, Method: STANDARD PLATE
[7] = Test System: AMES SALMONELLA TYPHIMURIUM, Strain/Indicator: TA98, Metabolic Activation: RAT, LIVER, S-9, AROCLOR 1254, Method: STANDARD PLATE
[8] = Test System: AMES SALMONELLA TYPHIMURIUM, Strain/Indicator: TA1535, Metabolic Activation: NONE, Method: STANDARD PLATE
[9] = Test System: AMES SALMONELLA TYPHIMURIUM, Strain/Indicator: TA1535, Metabolic Activation: RAT, LIVER, S-9, AROCLOR 1254, Method: STANDARD PLATE
[10] = Test System: AMES SALMONELLA TYPHIMURIUM, Strain/Indicator: TA1537, Metabolic Activation: NONE, Method: STANDARD PLATE
[11] = Test System: AMES SALMONELLA TYPHIMURIUM, Strain/Indicator: TA1537, Metabolic Activation: RAT, LIVER, S-9, AROCLOR 1254, Method: STANDARD PLATE

Measured: mutagenic call

Cc1ccc(C(C)C)c(O)c1
active: End Point: IN VITRO CHROMOSOMAL ABERRATIONS, Test System: SYRIAN HAMSTER EMBRYO (SHE) CELLS, Metabolic Activation: RAT, LIVER, S-9 active; positive (structural changes) | End Point: In vitro micronucleus, Test System: Human peripheral lymphocytes active; positive | End Point: In vivo chromosomal aberrations, Test System: Bone marrow cells, Species: Rat, Strain/Sex: Sprague-Dawley/Male, Route: Intraperitoneal active; positive (structural and numerical changes) | End Point: In vivo chromosomal aberrations, Test System: Human peripheral lymphocytes active; positive (structural changes)
inactive: End Point: IN VITRO CHROMOSOMAL ABERRATIONS, Test System: SYRIAN HAMSTER EMBRYO (SHE) CELLS, Metabolic Activation: NONE inactive; negative; toxic at 520 um | Test System: AMES SALMONELLA TYPHIMURIUM, Strain/Indicator: TA97, Metabolic Activation: NONE, Method: PREINCUBATION (20 MIN) inactive; negative | Test System: AMES SALMONELLA TYPHIMURIUM, Strain/Indicator: TA97, Metabolic Activation: S-9, Method: PREINCUBATION (20 MIN) inactive; negative | Test System: AMES SALMONELLA TYPHIMURIUM, Strain/Indicator: TA98, Metabolic Activation: NONE, Method: PREINCUBATION (20 MIN) inactive; negative | Test System: AMES SALMONELLA TYPHIMURIUM, Strain/Indicator: TA98, Metabolic Activation: S-9, Method: PREINCUBATION (20 MIN) inactive; negative | Test System: AMES SALMONELLA TYPHIMURIUM, Strain/Indicator: TA100, Metabolic Activation: NONE, Method: PREINCUBATION (20 MIN) inactive; negative | Test System: AMES SALMONELLA TYPHIMURIUM, Strain/Indicator: TA100, Metabolic Activation: S-9, Method: PREINCUBATION (20 MIN) inactive; negative

BrCc1cccc2c1-c1cccc3cccc-2c13
active: [1] active; positive | [2] active; positive

CC(C)(N=NC(C)(C)C(=N)N)C(=N)N
active: [3] active; positive | Test System: AMES SALMONELLA TYPHIMURIUM, Strain/Indicator: TA98, Metabolic Activation: RAT, LIVER, S-9, PHENOBARBITAL AND 5,6-BENZOFLAVONE, Method: PREINCUBATION active; positive | [4] active; positive | Test System: AMES SALMONELLA TYPHIMURIUM, Strain/Indicator: TA100, Metabolic Activation: RAT, LIVER, S-9, PHENOBARBITAL AND 5,6-BENZOFLAVONE, Method: PREINCUBATION active; positive

O=c1c2ccc3c4c(ccc(c24)c2nc4ccccc4n12)c(=O)n1c2ccccc2nc31
active: Test System: AMES SALMONELLA TYPHIMURIUM, Strain/Indicator: TA97, Metabolic Activation: NONE, Method: PREINCUBATION active; positive | Test System: AMES SALMONELLA TYPHIMURIUM, Strain/Indicator: TA98, Metabolic Activation: HAMSTER, LIVER, S-9, AROCLOR 1254 (10%), Method: PREINCUBATION active; positive | [3] active; positive
inactive: Test System: AMES SALMONELLA TYPHIMURIUM, Strain/Indicator: TA97, Metabolic Activation: HAMSTER, LIVER, S-9, AROCLOR 1254 (10%), Method: PREINCUBATION inactive; negative | Test System: AMES SALMONELLA TYPHIMURIUM, Strain/Indicator: TA97, Metabolic Activation: RAT, LIVER, S-9, AROCLOR 1254 (10%), Method: PREINCUBATION inactive; negative | Test System: AMES SALMONELLA TYPHIMURIUM, Strain/Indicator: TA98, Metabolic Activation: RAT, LIVER, S-9, AROCLOR 1254 (10%), Method: PREINCUBATION inactive; negative | Test System: AMES SALMONELLA TYPHIMURIUM, Strain/Indicator: TA100, Metabolic Activation: HAMSTER, LIVER, S-9, AROCLOR 1254 (10%), Method: PREINCUBATION inactive; negative | [4] inactive; negative | Test System: AMES SALMONELLA TYPHIMURIUM, Strain/Indicator: TA100, Metabolic Activation: RAT, LIVER, S-9, AROCLOR 1254 (10%), Method: PREINCUBATION inactive; negative | Test System: AMES SALMONELLA TYPHIMURIUM, Strain/Indicator: TA1535, Metabolic Activation: HAMSTER, LIVER, S-9, AROCLOR 1254 (10%), Method: PREINCUBATION inactive; negative | [5] inactive; negative | Test System: AMES SALMONELLA TYPHIMURIUM, Strain/Indicator: TA1535, Metabolic Activation: RAT, LIVER, S-9, AROCLOR 1254 (10%), Method: PREINCUBATION inactive; negative

COc1cc([C@@H]2c3cc4c(cc3[C@@H](O[C@@H]3O[C@@H]5CO[C@@H](c6cccs6)O[C@H]5[C@H](O)[C@H]3O)[C@H]3COC(=O)[C@H]23)OCO4)cc(OC)c1O
inactive: Test System: MOUSE LYMPHOMA, Strain/Indicator: L5178Y (HPRT)/6-THIOGUANINE, Metabolic Activation: NONE, Method: FLUCTUATION TEST inactive; negative
active: Test System: MOUSE LYMPHOMA, Strain/Indicator: L5178Y (TK+/TK-), Metabolic Activation: NONE active; positive | Test System: MOUSE LYMPHOMA, Strain/Indicator: L5178Y (TK+/TK-), Metabolic Activation: NONE, Method: FLUCTUATION TEST active; positive | Test System: MOUSE LYMPHOMA, Strain/Indicator: L5178Y (TK+/TK-), Metabolic Activation: NONE, Method: SUSPENSION/PLATE active; positive

Fc1ccc2cc3c(cc2c1)-c1cccc2cccc-3c12
active: [6] active; positive

Cc1ccc(N=Cc2cccc3cccnc23)c(C(=O)O)c1
inactive: [1] inactive; negative | [7] inactive; negative | [2] inactive; negative | [6] inactive; negative | [8] inactive; negative | [9] inactive; negative | [10] inactive; negative | [11] inactive; negative

CC[C@@]1(O)C(=O)OCc2c1cc1n(c2=O)Cc2cc3c(CN(C)C)c(O)ccc3nc2-1
active: Test System: CHINESE HAMSTER V-79, Strain/Indicator: V-79 (HPRT)/6-THIOGUANINE, Metabolic Activation: NONE active; positive

CCOc1ccc2ccccc2c1
inactive: [3] inactive; negative | Test System: AMES SALMONELLA TYPHIMURIUM, Strain/Indicator: TA98, Metabolic Activation: RAT LIVER S-9, PHENOBARBITAL AND BETA-NAPHTHOFLAVONE, Method: PREINCUBATION inactive; negative | [4] inactive; negative | Test System: AMES SALMONELLA TYPHIMURIUM, Strain/Indicator: TA100, Metabolic Activation: RAT LIVER S-9, PHENOBARBITAL AND BETA-NAPHTHOFLAVONE, Method: PREINCUBATION inactive; negative | [5] inactive; negative | Test System: AMES SALMONELLA TYPHIMURIUM, Strain/Indicator: TA1535, Metabolic Activation: RAT LIVER S-9, PHENOBARBITAL AND BETA-NAPHTHOFLAVONE, Method: PREINCUBATION inactive; negative | Test System: AMES SALMONELLA TYPHIMURIUM, Strain/Indicator: TA1537, Metabolic Activation: NONE, Method: PREINCUBATION inactive; negative | Test System: AMES SALMONELLA TYPHIMURIUM, Strain/Indicator: TA1537, Metabolic Activation: RAT LIVER S-9, PHENOBARBITAL AND BETA-NAPHTHOFLAVONE, Method: PREINCUBATION inactive; negative | Test System: E.COLI, Strain/Indicator: WP2UVRA/PKM101, Metabolic Activation: NONE, Method: PREINCUBATION inactive; negative | Test System: E.COLI, Strain/Indicator: WP2UVRA/PKM101, Metabolic Activation: RAT LIVER S-9, PHENOBARBITAL AND BETA-NAPHTHOFLAVONE, Method: PREINCUBATION inactive; negative

O=NN(CCO)CC(=O)O
active: [4] active; positive

O=C(O)c1cc(I)cc2cccnc12
inactive: [1] inactive; negative | [7] inactive; negative | [2] inactive; negative | [6] inactive; negative | [8] inactive; negative | [9] inactive; negative | [10] inactive; negative | [11] inactive; negative

COC(=O)C(/C=C(C)/C=C(C)/C=C/C=C(\C)C(=O)[C@]12O[C@H]1[C@@](O)(CCO)NC2=O)=C/CO
active: [4] active; positive
